{"source": "patent US9744211B2", "about": "“Uses of BT lipopeptides as therapeutics for obesity and related diseases” (MYGALAXY LIMITED COMPANY, priority 2012, dated 2017)", "test_system": "isolated chicken heterophils", "assay": "PMA-stimulated oxidative burst of heterophils in vitro (BT priming assay, with or without anti-TLR2 antibody blocking)", "type": "cell-based", "settings": "Group 2: PMA stimulation only, no BT", "excerpt": "However, the in vitro priming assay provides a useful tool for probing possible signaling pathway involved in BT-mediated innate immunomodulation. Since TLRs are conserved receptors playing key roles in innate immunity (Farnell et al., 2003) and TLR2 is the only TLR that has lipopeptide agonists, the same in vitro BT priming assay (Kogut et al., 2012) was employed to investigate whether TLR2 can function as a receptor for BT lipopeptides.\nGoat polyclonal antibodies raised against human TLR2 were purchased from Santa Cruz Biotechnology Lab (Santa Cruz, Calif.). For TLR2-blocking, isolated chicken heterophils and the antibodies (2.0 μg/ml) were incubated, prior to the treatments of BT and/or PMA, at 39° C. for 30 minutes."}
{"smiles": "CCCCCCCCCCCCCC(=O)O[C@@H]1[C@@H](C)[C@@]2(O)[C@@H](C=C(CO)C[C@]3(O)C(=O)C(C)=C[C@@H]23)[C@@H]2C(C)(C)[C@]12OC(C)=O", "note": "[PMA]", "values": [{"measurement": "Oxidative burst (RFU + SE) in 10^3", "value": "11.235 ± 0.125", "unit": "RFU in 10^3"}]}
